Data published in patent publication US9963445B2, “Chemical compounds” (SYNGENTA PARTICIPATIONS AG, priority 2013, dated 2018).

Tests used:
Type in all cases: in vivo
Abutilon theophrasti [1] = assay: Pre-emergence herbicidal activity, glasshouse pot test; settings: pre-emergence spray, rate 1000 g/ha, evaluated after 13 days, scale 0-5
How it was run: (§1)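 Seeds sown in standard soil were sprayed one day after sowing, before emergence, with compound formulated in acetone/water (50:50) plus 0.5% Tween 20. Plants were grown at 24/16 °C day/night, 14 h light, 65% humidity, watered twice daily, and damage was scored after 13 days (0 = none, 5 = total).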

Alopecurus myosuroides [2] = assay: as above; settings: pre-emergence spray, rate 1000 g/ha, evaluated after 13 days, scale 0-5
How it was run: as §1

Amaranthus retroflexus [3] = assay: as above; settings: pre-emergence spray, rate 1000 g/ha, evaluated after 13 days, scale 0-5
How it was run: as §1

Echinochloa crus-galli [4] = assay: as above; settings: pre-emergence spray, rate 1000 g/ha, evaluated after 13 days, scale 0-5
How it was run: as §1

Setaria faberi [5] = assay: as above; settings: pre-emergence spray, rate 1000 g/ha, evaluated after 13 days, scale 0-5
How it was run: as §1

zea mays [6] = assay: as above; settings: pre-emergence spray, rate 1000 g/ha, evaluated after 13 days, scale 0-5
How it was run: as §1

Abutilon theophrasti [7] = assay: Post-emergence herbicidal activity, glasshouse pot test; parameters: key: 0 = no damage to plant, 5 = total damage to plant; settings: Application post-emergence, rate 1000 g/ha, evaluated after 13 days
How it was run: (§2)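 After 8 days of glasshouse growth at 24/16 °C day/night, potted plants receive a foliar spray of the formulated compound (0.5% Tween 20 in acetone/water). They are then watered twice daily under unchanged conditions, and phytotoxicity is scored 0–5 after 13 days.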

Alopecurus myosuroides [8] = assay: as above; parameters: key: 0 = no damage to plant, 5 = total damage to plant; settings: Application post-emergence, rate 1000 g/ha, evaluated after 13 days
How it was run: as §2

Amaranthus retroflexus [9] = assay: as above; parameters: key: 0 = no damage to plant, 5 = total damage to plant; settings: Application post-emergence, rate 1000 g/ha, evaluated after 13 days
How it was run: as §2

Echinochloa crus-galli [10] = assay: as above; parameters: key: 0 = no damage to plant, 5 = total damage to plant; settings: Application post-emergence, rate 1000 g/ha, evaluated after 13 days
How it was run: as §2

Setaria faberi [11] = assay: as above; parameters: key: 0 = no damage to plant, 5 = total damage to plant; settings: Application post-emergence, rate 1000 g/ha, evaluated after 13 days
How it was run: as §2

zea mays [12] = assay: as above; parameters: key: 0 = no damage to plant, 5 = total damage to plant; settings: Application post-emergence, rate 1000 g/ha, evaluated after 13 days
How it was run: as §2

## CC1=C(Cl)C(=O)N(c2cc(C(C)(F)F)c(Cl)nn2)C1O (stereo not drawn) [BF12]
Abutilon theophrasti [1]
  ABUTH damage score, application pre-emergence: 3
Alopecurus myosuroides [2]
  ALOMY damage score, application pre-emergence: 3
Amaranthus retroflexus [3]
  AMARE damage score, application pre-emergence: 5
Echinochloa crus-galli [4]
  ECHCG damage score, application pre-emergence: 4
Setaria faberi [5]
  SETFA damage score, application pre-emergence: 4
Zea mays [6]
  ZEAMX damage score, application pre-emergence: 2
Abutilon theophrasti [7]
  ABUTH herbicidal damage score: 4
Alopecurus myosuroides [8]
  ALOMY herbicidal damage score: 4
Amaranthus retroflexus [9]
  AMARE herbicidal damage score: 5
Echinochloa crus-galli [10]
  ECHCG herbicidal damage score: 5
Setaria faberi [11]
  SETFA herbicidal damage score: 5
Zea mays [12]
  ZEAMX herbicidal damage score: 3

## CC1=C(Cl)C(=O)N(c2cc(C(C)(F)F)ccn2)C1O (stereo not drawn) [AF32]
Abutilon theophrasti [1]
  ABUTH damage score, application pre-emergence: 5
Alopecurus myosuroides [2]
  ALOMY damage score, application pre-emergence: 3
Amaranthus retroflexus [3]
  AMARE damage score, application pre-emergence: 5
Echinochloa crus-galli [4]
  ECHCG damage score, application pre-emergence: 4
Setaria faberi [5]
  SETFA damage score, application pre-emergence: 5
Zea mays [6]
  ZEAMX damage score, application pre-emergence: 2
Abutilon theophrasti [7]
  ABUTH herbicidal damage score: 5
Alopecurus myosuroides [8]
  ALOMY herbicidal damage score: 4
Amaranthus retroflexus [9]
  AMARE herbicidal damage score: 5
Echinochloa crus-galli [10]
  ECHCG herbicidal damage score: 5
Setaria faberi [11]
  SETFA herbicidal damage score: 5
Zea mays [12]
  ZEAMX herbicidal damage score: 4

## COC1=C(Br)C(=O)N(c2cc(C(F)(F)F)ccn2)C1O (stereo not drawn) [AJ1, 4-bromo-2-hydroxy-3-methoxy-1-[4-(trifluoromethyl)-2-pyridyl]-2H-pyrrol-5-one]
Abutilon theophrasti [1]
  ABUTH damage score, application pre-emergence: 5
Alopecurus myosuroides [2]
  ALOMY damage score, application pre-emergence: 4
Amaranthus retroflexus [3]
  AMARE damage score, application pre-emergence: 4
Echinochloa crus-galli [4]
  ECHCG damage score, application pre-emergence: 5
Setaria faberi [5]
  SETFA damage score, application pre-emergence: 5
Zea mays [6]
  ZEAMX damage score, application pre-emergence: 2
Abutilon theophrasti [7]
  ABUTH herbicidal damage score: 5
Alopecurus myosuroides [8]
  ALOMY herbicidal damage score: 5
Amaranthus retroflexus [9]
  AMARE herbicidal damage score: 5
Echinochloa crus-galli [10]
  ECHCG herbicidal damage score: 5
Setaria faberi [11]
  SETFA herbicidal damage score: 5
Zea mays [12]
  ZEAMX herbicidal damage score: 2

## CC1=C(Cl)C(=O)N(c2cc(C(C)C)c(Cl)nn2)C1O (stereo not drawn) [BF10]
Abutilon theophrasti [1]
  ABUTH damage score, application pre-emergence: 4
Alopecurus myosuroides [2]
  ALOMY damage score, application pre-emergence: 4
Amaranthus retroflexus [3]
  AMARE damage score, application pre-emergence: 3
Echinochloa crus-galli [4]
  ECHCG damage score, application pre-emergence: 5
Setaria faberi [5]
  SETFA damage score, application pre-emergence: 5
Zea mays [6]
  ZEAMX damage score, application pre-emergence: 2
Abutilon theophrasti [7]
  ABUTH herbicidal damage score: 5
Alopecurus myosuroides [8]
  ALOMY herbicidal damage score: 5
Amaranthus retroflexus [9]
  AMARE herbicidal damage score: 5
Echinochloa crus-galli [10]
  ECHCG herbicidal damage score: 5
Setaria faberi [11]
  SETFA herbicidal damage score: 5
Zea mays [12]
  ZEAMX herbicidal damage score: 3

## COC1=C(C)C(O)N(c2cc(C(C)(F)F)c(Cl)nn2)C1=O (stereo not drawn) [BI22]
Abutilon theophrasti [1]
  ABUTH damage score, application pre-emergence: 4
Alopecurus myosuroides [2]
  ALOMY damage score, application pre-emergence: 4
Amaranthus retroflexus [3]
  AMARE damage score, application pre-emergence: 5
Echinochloa crus-galli [4]
  ECHCG damage score, application pre-emergence: 5
Setaria faberi [5]
  SETFA damage score, application pre-emergence: 4
Zea mays [6]
  ZEAMX damage score, application pre-emergence: 3
Abutilon theophrasti [7]
  ABUTH herbicidal damage score: 5
Alopecurus myosuroides [8]
  ALOMY herbicidal damage score: 5
Amaranthus retroflexus [9]
  AMARE herbicidal damage score: 5
Echinochloa crus-galli [10]
  ECHCG herbicidal damage score: 5
Setaria faberi [11]
  SETFA herbicidal damage score: 5
Zea mays [12]
  ZEAMX herbicidal damage score: 3

## CCCC1=C(Cl)C(=O)N(c2cc(C(C)(C)C#N)ncn2)C1O (stereo not drawn) [CF22]
Abutilon theophrasti [1]
  ABUTH damage score, application pre-emergence: 5
Alopecurus myosuroides [2]
  ALOMY damage score, application pre-emergence: 2
Amaranthus retroflexus [3]
  AMARE damage score, application pre-emergence: 5
Echinochloa crus-galli [4]
  ECHCG damage score, application pre-emergence: 5
Setaria faberi [5]
  SETFA damage score, application pre-emergence: 4
Zea mays [6]
  ZEAMX damage score, application pre-emergence: 2
Abutilon theophrasti [7]
  ABUTH herbicidal damage score: 5
Alopecurus myosuroides [8]
  ALOMY herbicidal damage score: 5
Amaranthus retroflexus [9]
  AMARE herbicidal damage score: 5
Echinochloa crus-galli [10]
  ECHCG herbicidal damage score: 5
Setaria faberi [11]
  SETFA herbicidal damage score: 5
Zea mays [12]
  ZEAMX herbicidal damage score: 3

## CC1=C(Cl)C(=O)N(c2nccc(C(F)(F)F)n2)C1O (stereo not drawn) [DF1]
Abutilon theophrasti [1]
  ABUTH damage score, application pre-emergence: 4
Alopecurus myosuroides [2]
  ALOMY damage score, application pre-emergence: 4
Amaranthus retroflexus [3]
  AMARE damage score, application pre-emergence: 5
Echinochloa crus-galli [4]
  ECHCG damage score, application pre-emergence: 4
Setaria faberi [5]
  SETFA damage score, application pre-emergence: 4
Zea mays [6]
  ZEAMX damage score, application pre-emergence: 2
Abutilon theophrasti [7]
  ABUTH herbicidal damage score: 5
Alopecurus myosuroides [8]
  ALOMY herbicidal damage score: 4
Amaranthus retroflexus [9]
  AMARE herbicidal damage score: 5
Echinochloa crus-galli [10]
  ECHCG herbicidal damage score: 5
Setaria faberi [11]
  SETFA herbicidal damage score: 5
Zea mays [12]
  ZEAMX herbicidal damage score: 4

## COC1=C(C)C(O)N(c2cc(C(C)C)c(Cl)nn2)C1=O (stereo not drawn) [BI2]
Abutilon theophrasti [1]
  ABUTH damage score, application pre-emergence: 4
Alopecurus myosuroides [2]
  ALOMY damage score, application pre-emergence: 4
Amaranthus retroflexus [3]
  AMARE damage score, application pre-emergence: 4
Echinochloa crus-galli [4]
  ECHCG damage score, application pre-emergence: 5
Setaria faberi [5]
  SETFA damage score, application pre-emergence: 5
Zea mays [6]
  ZEAMX damage score, application pre-emergence: 3
Abutilon theophrasti [7]
  ABUTH herbicidal damage score: 5
Alopecurus myosuroides [8]
  ALOMY herbicidal damage score: 5
Amaranthus retroflexus [9]
  AMARE herbicidal damage score: 5
Echinochloa crus-galli [10]
  ECHCG herbicidal damage score: 5
Setaria faberi [11]
  SETFA herbicidal damage score: 5
Zea mays [12]
  ZEAMX herbicidal damage score: 3

## CCC(CNC(=O)c1cnc(N2C(=O)C(OC)=C(C)C2O)cc1C)C(F)(F)F (stereo not drawn) [AI37]
Abutilon theophrasti [1]
  ABUTH damage score, application pre-emergence: 5
Alopecurus myosuroides [2]
  ALOMY damage score, application pre-emergence: 4
Amaranthus retroflexus [3]
  AMARE damage score, application pre-emergence: 5
Echinochloa crus-galli [4]
  ECHCG damage score, application pre-emergence: 5
Setaria faberi [5]
  SETFA damage score, application pre-emergence: 5
Zea mays [6]
  ZEAMX damage score, application pre-emergence: 2
Abutilon theophrasti [7]
  ABUTH herbicidal damage score: 5
Alopecurus myosuroides [8]
  ALOMY herbicidal damage score: 5
Amaranthus retroflexus [9]
  AMARE herbicidal damage score: 5
Echinochloa crus-galli [10]
  ECHCG herbicidal damage score: 5
Setaria faberi [11]
  SETFA herbicidal damage score: 5
Zea mays [12]
  ZEAMX herbicidal damage score: 5

## COC1=C(OC)C(O)N(c2cc(Cl)c(Cl)cn2)C1=O (stereo not drawn) [AK7]
Abutilon theophrasti [1]
  ABUTH damage score, application pre-emergence: 2
Alopecurus myosuroides [2]
  ALOMY damage score, application pre-emergence: 0
Amaranthus retroflexus [3]
  AMARE damage score, application pre-emergence: 0
Echinochloa crus-galli [4]
  ECHCG damage score, application pre-emergence: 4
Setaria faberi [5]
  SETFA damage score, application pre-emergence: 0
Zea mays [6]
  ZEAMX damage score, application pre-emergence: 0
Abutilon theophrasti [7]
  ABUTH herbicidal damage score: 5
Alopecurus myosuroides [8]
  ALOMY herbicidal damage score: 4
Amaranthus retroflexus [9]
  AMARE herbicidal damage score: 5
Echinochloa crus-galli [10]
  ECHCG herbicidal damage score: 5
Setaria faberi [11]
  SETFA herbicidal damage score: 5
Zea mays [12]
  ZEAMX herbicidal damage score: 1

## COC1=C(OC)C(O)N(c2cc(Br)ccn2)C1=O (stereo not drawn) [AK5]
Abutilon theophrasti [1]
  ABUTH damage score, application pre-emergence: 0
Alopecurus myosuroides [2]
  ALOMY damage score, application pre-emergence: 1
Amaranthus retroflexus [3]
  AMARE damage score, application pre-emergence: 1
Echinochloa crus-galli [4]
  ECHCG damage score, application pre-emergence: 4
Setaria faberi [5]
  SETFA damage score, application pre-emergence: 1
Zea mays [6]
  ZEAMX damage score, application pre-emergence: 0
Abutilon theophrasti [7]
  ABUTH herbicidal damage score: 5
Alopecurus myosuroides [8]
  ALOMY herbicidal damage score: 5
Amaranthus retroflexus [9]
  AMARE herbicidal damage score: 5
Echinochloa crus-galli [10]
  ECHCG herbicidal damage score: 5
Setaria faberi [11]
  SETFA herbicidal damage score: 5
Zea mays [12]
  ZEAMX herbicidal damage score: 0

## CC1=C(Cl)C(=O)N(c2ccc(C#N)cn2)C1O (stereo not drawn) [AF60]
Abutilon theophrasti [1]
  ABUTH damage score, application pre-emergence: 0
Alopecurus myosuroides [2]
  ALOMY damage score, application pre-emergence: 0
Amaranthus retroflexus [3]
  AMARE damage score, application pre-emergence: 0
Echinochloa crus-galli [4]
  ECHCG damage score, application pre-emergence: 0
Setaria faberi [5]
  SETFA damage score, application pre-emergence: 0
Zea mays [6]
  ZEAMX damage score, application pre-emergence: 0
Abutilon theophrasti [7]
  ABUTH herbicidal damage score: 0
Alopecurus myosuroides [8]
  ALOMY herbicidal damage score: 1
Amaranthus retroflexus [9]
  AMARE herbicidal damage score: 0
Echinochloa crus-galli [10]
  ECHCG herbicidal damage score: 1
Setaria faberi [11]
  SETFA herbicidal damage score: 1
Zea mays [12]
  ZEAMX herbicidal damage score: 0
